The target in assay [1] is T1, S1P1 (Homo sapiens, UniProt P21453). Put plainly: Receptor binding assay, [33P]sphingosine 1-phosphate competition, S1P1 membranes, WGA SPA beads. The procedure:
(§1) Membranes were prepared from CHO cells expressing S1P1 or S1P3 for use in ligand and […] binding studies. Cells were suspended in 50 mM TRIS, pH 7.4, 2 mM EDTA, 250 mM Sucrose (buffer A) and 1× Complete protease inhibitor cocktail (Roche), and disrupted at 4° C. by N2 decompression using a cell disruption bomb (Parr Instrument). Following centrifugation at 1000 RPM for 10 min at 4° C., the supernatant was diluted (2×) in buffer A and centrifuged again at 19000 RPM for 75 min at 4° C. The pellet was then suspended in 10 mM HEPES, pH 7.4, 1 mM EDTA, 250 mM Sucrose (Buffer B), and 1× Complete EDTA-free protease inhibitor cocktail and homogenized using a potter. Membranes were flash frozen in liquid N2 and stored at −80° C.
(§2) Receptor binding assay: [33P]sphingosine 1-phosphate (3000 Ci/mmol; American Radiolabeled Chemicals, Inc.) was added to test compounds in 20% DMSO by competition. Membranes and WGA SPA beads (GE Healthcare) were added to give a final volume of 100 μl in 96-well plates or 50 μl in 384-well plates with assay concentrations of […] [33P]sphingosine 1-phosphate (respectively for S1P1 or S1P3), 50 mM HEPES, pH 7.5, 5 mM MgCl2, 100 mM NaCl, 0.4% fatty acid-free BSA, 1-5 μg/well of proteins in 96-well plates vs 0.6-1 μg/well of proteins in 384-well plates and 100 μg/well of WGA SPA beads in 96-well plates vs 75 μg/well of WGA SPA beads in 384-well plates. Binding was performed for 60 min at RT on a shaker and bound radioactivity was measured on a PerkinElmer 1450 MicroBeta counter. Triplicate samples were averaged and normalized as percentage of inhibition relative to total binding (only DMSO in well) and nonspecific binding (1000-fold excess of unlabeled S1P). Binding data were analyzed using the GraphPad Prism program or Genedata software.
Target sequence in this assay (P21453 whole entry, species assumed): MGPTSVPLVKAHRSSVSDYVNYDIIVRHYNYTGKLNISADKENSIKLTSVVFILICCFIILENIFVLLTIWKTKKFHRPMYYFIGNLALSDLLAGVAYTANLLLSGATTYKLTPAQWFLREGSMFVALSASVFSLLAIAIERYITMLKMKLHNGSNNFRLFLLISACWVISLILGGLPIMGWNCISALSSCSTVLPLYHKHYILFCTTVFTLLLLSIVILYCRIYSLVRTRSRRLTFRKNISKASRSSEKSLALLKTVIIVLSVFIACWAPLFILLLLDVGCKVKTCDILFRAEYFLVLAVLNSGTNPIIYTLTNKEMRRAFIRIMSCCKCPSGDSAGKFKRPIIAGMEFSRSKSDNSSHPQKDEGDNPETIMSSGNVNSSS

Assay [2] deals with T1, S1P1. Put plainly: S1P1 internalization assay in S1P1-U2OS cells (S1P1-EGFP), cell imaging. Further details: host or cells: U2OS (human bone osteosarcoma epithelial cells), CMV promoter, geneticin selection. To be noted: 1 hour incubation. In kind it is cell-based. The method, then: Cellular functional assays: Internalization of Sphingosine-1-phosphate receptor 1 (S1P1) in a human Cell line (U2OS) in a 384-well format using a Cell Imaging analysis. • Jo, E.; Sanna, M. G.; Gonzalez-Cabrera, P. J.; Thangada, S.; Tigyi, S.; Osborne, D. A.; Hla, T.; Parrill, A. L.; Rosen, H. Chem. Biol. 2005, 12, 703
The S1P1 internalization assay was performed in 384 well plates (Corning® 384 black with clear bottom 3712) using S1P1-U2OS cells from Biolmage (C039A), a human epithelial cell line (Human Bone Osteosarcoma Epithelial Cells). These cells expressed the human S1P1 Receptor fused to the green fluorescent protein (EGFP). A standard CMV promoter (cytomegalovirus promoter) controls the expression of S1P1-EGFP and continuous expression was maintained by addition of geneticin to the culture medium.
S1P1 Receptor desensitization induced the internalization of the membrane-localized S1P1-EGFP fusion protein to endosomes, which can be monitored by cell imaging analysis. The cells are plated in low serum medium (Dulbecco's Modified Eagle Medium (DMEM) with Glutamax-1 and high glucose, 1% Penicillin/Streptomycin, 1% Fetal Calf Serum (FCS), 0.5 mg/ml Geneticin) overnight.
The next day, S1P1-U2OS cells are incubated in 20 μl serum free medium (DMEM with Glutamax-1 and high glucose, 0.1% of fatty-acid free Bovin Serum Albumin (BSA), 10 mM, N′-2-Hydroxyethylpiperazine-N′-2 ethanesulphonic acid (HEPES) 1M) for 2 hours at 37° C./5% CO2. The cells are then treated with 4 μl compounds/agonists (6×/3% DMSO) for a total volume of 24 μl, and plates are incubated for 1 hour at 37° C./5% CO2.
S1P1-U2OS cells are fixed with 25 μl Paraformaldehyde 8% and stained with Hoechst 33345 dye (1:1000) for 20 minutes.
They were then washed 3 times with Phosphate Buffered Saline (PBS) and plates are sealed. The internalization of the receptor S1P1-EGFP is measured on Cellomics by calculating the “spot count per object” (“object” corresponds to nuclear and “spot” corresponds to S1P1-EGFP receptor). Internalization data were observed thanks to vHCS View and analyzed using Genedata® software.
Target sequence in this assay (P21453 whole entry): as the sequence (P21453 whole entry, species assumed) above

For assay [3], the target named is S1P3 (Homo sapiens, UniProt Q99500). The assay is described as follows: Receptor binding assay, [33P]sphingosine 1-phosphate competition, S1P3 membranes, WGA SPA beads. The method, then: as §1, §2
Setting [4] is: 96 well-plate, read-out: S1P1 binding Ki (M) (96 well-plate).
Setting [5] is: 96 well-plate, read-out: S1P3 binding Ki (M) (96 well-plate).
The mark [6] stands for this setting: 384 well-plate, read-out: S1P3 binding Ki (M) (384 well-plate).
Setting [7] is: 384 well-plate, read-out: S1P1 binding Ki (M) (384 well-plate).

The structures appear in SMILES notation. Where a name gives a salt, the structure may show the parent alone. Read-outs that look alike come from different tables or passages of the source.

Sequence of S1P3 (Q99500 whole entry, species assumed): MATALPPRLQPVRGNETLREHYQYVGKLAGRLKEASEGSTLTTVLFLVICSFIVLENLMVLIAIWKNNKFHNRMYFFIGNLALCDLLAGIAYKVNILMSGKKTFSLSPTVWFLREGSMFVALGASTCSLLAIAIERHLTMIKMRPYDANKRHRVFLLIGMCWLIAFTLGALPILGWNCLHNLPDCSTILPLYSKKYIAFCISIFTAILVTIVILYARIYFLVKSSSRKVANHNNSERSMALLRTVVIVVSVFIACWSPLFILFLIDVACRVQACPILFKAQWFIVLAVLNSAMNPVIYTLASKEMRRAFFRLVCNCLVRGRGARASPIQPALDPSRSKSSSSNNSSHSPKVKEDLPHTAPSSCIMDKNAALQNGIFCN

In the case of `COCc1cc(-c2nc(-c3ccc(OCCO)c(F)c3)no2)ccc1-c1ccccc1C` [Example 28, 2-(2-fluoro-4-{5-[2-(methoxymethyl)-2′-methylbiphenyl-4-yl]-1,2,4-oxadiazol-3-yl}phenoxy)ethanol], the results for the inhibitory constant (Ki) in assay [1] (setting [4]) and in assay [3] (setting [5]) were 8.88e-10 M and 2.14e-07 M, respectively. Also, the EC50 in assay [2] came out at 11.9 nM.

Turning to `COCc1cc(-c2nc(-c3cccc(CN(C)CC(=O)O)c3)no2)ccc1N1CCCCC1` [Example 29], the results for the Ki in assay [1] (setting [4]) and in assay [3] (setting [6]) were 1.47e-10 M and 2.38e-07 M, respectively. In assay [2], this compound registered an EC50 of 7.33 nM.

Regarding `CCOc1cc(-c2nc(-c3cccc(CN(C)CC(=O)O)c3)no2)ccc1-c1ccccc1C` [Example 30, N-{3-[5-(2-ethoxy-2′-methylbiphenyl-4-yl)-1,2,4-oxadiazol-3-yl]benzyl}-N-methylglycine, hydrochloride salt], the Ki in assay [1] (setting [4]) came out at 2.01e-10 M; in assay [3] (setting [5]), 3e-08 M. In addition, the midpoint of the response in assay [2], the EC50, lay at 8.92 nM.

Regarding `COCc1cc(-c2nc(-c3cccc(CN(C)CC(=O)O)c3)no2)ccc1-c1ccccc1` [Example 33], the results for the Ki in assay [1] (setting [4]) and in assay [3] (setting [5]) were 1.83e-10 M and 6.24e-08 M, respectively. Further, the EC50 in assay [2] was determined as 6.96 nM.

As for `COCc1cc(-c2nc(-c3cccc(CN(C)CC(=O)O)c3)no2)ccc1N1CCCC1C` (stereo not shown) [Example 34, N-(3-{5-[3-(methoxymethyl)-4-(2-methylpyrrolidin-1-yl)phenyl]-1,2,4-oxadiazol-3-yl}benzyl)-N-methylglycine], the figures for the inhibitory constant (Ki) in assay [1] (setting [4]) and in assay [3] (setting [5]) were 1.18e-10 M and 3.03e-07 M, respectively. Moreover, the EC50 in assay [2] turned out to be 13.5 nM.

Take `COCc1cc(-c2nc(-c3cccc(CN(C)CC(=O)O)c3)no2)ccc1-c1cccc(F)c1C` [Example 35, N-(3-{5-[3′-fluoro-2-(methoxymethyl)-2′-methylbiphenyl-4-yl]-1,2,4-oxadiazol-3-yl}benzyl)-N-methylglycine, hydrochloride salt]: the Ki in assay [1] (setting [4]) was determined as 1.98e-10 M; in assay [3] (setting [5]), 9.4e-08 M. Also, the EC50 in assay [2] came to 5.88 nM.

Take `COCc1cc(-c2nc(-c3cccc(CN(C)CC(=O)O)c3)no2)ccc1-c1ccc(F)cc1C` [Example 36, N-(3-{5-[4′-fluoro-2-(methoxymethyl)-2′-methylbiphenyl-4-yl]-1,2,4-oxadiazol-3-yl}benzyl)-N-methylglycine, hydrochloride salt]: the results for the Ki in assay [1] (setting [4]), in assay [1] (setting [7]) and in assay [3] (setting [6]) were 5.59e-10 M, 1.97e-09 M and 2.71e-07 M, respectively. The response in assay [2] was half-maximal at 14.8 nM (EC50).

Take `COCc1cc(-c2nc(-c3cccc(CN(C)CC(=O)O)c3)no2)ccc1-c1cc(F)ccc1C` [Example 37, N-(3-{5-[5′-fluoro-2-(methoxymethyl)-2′-methylbiphenyl-4-yl]-1,2,4-oxadiazol-3-yl}benzyl)-N-methylglycine, hydrochloride salt]: the Ki came to 3.33e-10 M in assay [1] (setting [4]) and 6.34e-08 M in assay [3] (setting [5]). A half-maximal response in assay [2] (EC50) required 6.56 nM.

On to `CC1CCCCN1c1ccc(-c2nc(-c3cccc(COCC(=O)O)c3)no2)cc1C(F)(F)F` (stereo not shown) [Example 38, [(3-{5-[4-(2-methylpiperidin-1-yl)-3-(trifluoromethyl)phenyl]-1,2,4-oxadiazol-3-yl}benzyl)oxy]acetic acid, hydrochloride salt], for which the Ki in assay [1] (setting [4]) came to 6.22e-10 M; in assay [3] (setting [5]), 6.74e-07 M. Besides, the midpoint of the response in assay [2], the EC50, lay at 15.4 nM.

For the compound `COCc1cc(-c2nc(-c3cccc(CN(C)CC(O)CO)c3)no2)ccc1-c1ccccc1C` (stereo not shown) [Example 39, 3-[(3-{5-[2-(methoxymethyl)-2′-methylbiphenyl-4-yl]-1,2,4-oxadiazol-3-yl}benzyl)(methyl)amino]propane-1,2-diol], the Ki came out at 3.71e-10 M in assay [1] (setting [4]), 2.08e-09 M in assay [1] (setting [7]), 8.48e-07 M in assay [3] (setting [5]) and 1.18e-06 M in assay [3] (setting [6]). Besides, the concentration for a half-maximal effect (EC50) in assay [2] is 13.5 nM.

With `COCc1cc(-c2nc(-c3cccc(CN(CCO)CCO)c3)no2)ccc1-c1ccccc1C` [Example 40, 2,2′-[(3-{5-[2-(methoxymethyl)-2′-methylbiphenyl-4-yl]-1,2,4-oxadiazol-3-yl}benzyl)imino]diethanol], the inhibition constant (Ki) worked out at 4.52e-10 M in assay [1] (setting [4]), 5.35e-07 M in assay [3] (setting [5]) and 9.69e-07 M in assay [3] (setting [6]). In assay [2], this compound yielded an EC50 of 18.2 nM.

Regarding `COCc1cc(-c2nc(-c3cccc(CC(=O)NCCN(C)C)c3)no2)ccc1-c1ccccc1C` [Example 41, N-[2-(dimethylamino)ethyl]-2-(3-{5-[2-(methoxymethyl)-2′-methylbiphenyl-4-yl]-1,2,4-oxadiazol-3-yl}phenyl)acetamide], the inhibition constant Ki in assay [1] (setting [4]) turned out to be 1.27e-09 M; in assay [1] (setting [7]) it was 8.34e-09 M; in assay [3] (setting [6]) it was 4.3e-06 M. The compound also yielded an EC50 in assay [2] of 76.9 nM.

Turning to `COCc1cc(-c2nc(-c3cccc(CN(C)CC(=O)O)c3)no2)ccc1-c1ccc(F)c(F)c1C` [Example 42, N-(3-{5-[3′,4′-difluoro-2-(methoxymethyl)-2′-methylbiphenyl-4-yl]-1,2,4-oxadiazol-3-yl}benzyl)-N-methylglycine, hydrochloride salt], the Ki was found to be 1.82e-10 M in assay [1] (setting [4]), 1.7e-09 M in assay [1] (setting [7]) and 2.75e-07 M in assay [3] (setting [6]). The response in assay [2] was half-maximal at 18.3 nM (EC50).

In the case of `COCc1cc(-c2nc(-c3cccc(CC(=O)NCCC(=O)O)c3)no2)ccc1-c1ccccc1C` [Example 43, N-[(3-{5-[2-(methoxymethyl)-2′-methylbiphenyl-4-yl]-1,2,4-oxadiazol-3-yl}phenyl)acetyl]-beta-alanine], the inhibitory constant (Ki) in assay [1] (setting [4]) is 2.16e-09 M; in assay [1] (setting [7]) it was 6.6e-09 M; in assay [3] (setting [6]) it was 2e-07 M. In addition, in assay [2], the EC50 stood at 34.5 nM.

As to `COCc1cc(-c2nc(-c3cccc(CC(=O)N(C)CC(=O)O)c3)no2)ccc1-c1ccccc1C` [Example 44, N-[(3-{5-[2-(methoxymethyl)-2′-methylbiphenyl-4-yl]-1,2,4-oxadiazol-3-yl}phenyl)acetyl]-N-methylglycine], the Ki in assay [1] (setting [4]) was found to be 1.71e-09 M; in assay [1] (setting [7]) it was 1.02e-08 M; in assay [3] (setting [6]) it was 1.31e-07 M. This compound also registered an EC50 in assay [2] of 115 nM.

`C[C@@H]1CCCCN1c1ccc(-c2nc(-c3cccc(CN(C)CC(=O)O)c3)no2)cc1C(F)(F)F` [Example 45, N-methyl-N-(3-{5-[4-[(2R)-2-methylpiperidin-1-yl]-3-(trifluoromethyl)phenyl]-1,2,4-oxadiazol-3-yl}benzyl)glycine, hydrochloride salt]: the Ki in assay [1] (setting [4]) was 5.2e-10 M; in assay [3] (setting [5]), 1.82e-07 M. The compound further displayed a 50% effective concentration (EC50) in assay [2] of 12.1 nM.

Take `COCc1cc(-c2nc(-c3cccc(CCN(C)CC(=O)OC(C)(C)C)c3)no2)ccc1-c1ccccc1C` [Example 75]: the Ki in assay [1] (setting [4]) turned out to be 3.04e-09 M. A half-maximal effect in assay [2] (EC50) was put at 195 nM.

With `Cc1cc(-c2nc(-c3ccc(CN(C)CC(=O)O)cc3)no2)ccc1-c1ccccc1C(F)F` [Example 137, N-(4-{5-[2′-(difluoromethyl)-2-methylbiphenyl-4-yl]-1,2,4-oxadiazol-3-yl}benzyl)-N-methylglycine, hydrochloride salt], the Ki worked out at 8.55e-10 M in assay [1] (setting [4]) and 2.37e-09 M in assay [1] (setting [7]). In assay [2], this compound showed an EC50 of 28.9 nM.

Source of the values: patent US8815919B2, “Oxadiazole derivatives” (Merck Serono SA, priority 2009, dated 2014).
